Results published in ChEMBL document CHEMBL1201862, “PubChem BioAssay data set” (2004).
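Interpolation was linear, between the two tested concentrations surrounding the appropriate level; five concentrations were tested over 48 hours in 96-well plates. GI50: concentration for 50% inhibition of growth.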 Active and inactive are the calls of the source. Rule as the data show it: active = GI50 up to about 1.1 µM and inactive = higher.

Legend:
Experiment in all cases: NCI anticancer screen, dose series, 48 h
A498 = tested on: A498
A549 = tested on: A549
CAKI-1 = tested on: CAKI-1
CCRF-CEM = tested on: CCRF-CEM
COLO 205 = tested on: COLO 205
DLD-1 = tested on: DLD-1
DMS-114 = tested on: DMS-114
DMS-273 = tested on: DMS-273
EKVX = tested on: EKVX
HCC 2998 = tested on: HCC 2998
HCT-116 = tested on: HCT-116
HCT-15 = tested on: HCT-15
HL-60 = tested on: HL-60
HOP-18 = tested on: HOP-18
HOP-62 = tested on: HOP-62
HOP-92 = tested on: HOP-92
HT-29 = tested on: HT-29
IGROV-1 = tested on: IGROV-1
K562 = tested on: K562
KM-20L2 = tested on: KM-20L2
KM12 = tested on: KM12
LOX IMVI = tested on: LOX IMVI
M19-MEL = tested on: M19-MEL
MCF7 = tested on: MCF7
MOLT-4 = tested on: MOLT-4
Malme-3M = tested on: Malme-3M
NCI-H226 = tested on: NCI-H226
NCI-H23 = tested on: NCI-H23
NCI-H460 = tested on: NCI-H460
NCI/ADR-RES = tested on: NCI/ADR-RES
OVCAR-3 = tested on: OVCAR-3
OVCAR-4 = tested on: OVCAR-4
OVCAR-5 = tested on: OVCAR-5
OVCAR-8 = tested on: OVCAR-8
RPMI-8226 = tested on: RPMI-8226
RXF 393 = tested on: RXF 393
SF-268 = tested on: SF-268
SF-295 = tested on: SF-295
SF-539 = tested on: SF-539
SK-MEL-28 = tested on: SK-MEL-28
SK-MEL-2 = tested on: SK-MEL-2
SK-MEL-5 = tested on: SK-MEL-5
SK-OV-3 = tested on: SK-OV-3
SN12C = tested on: SN12C
SNB-19 = tested on: SNB-19
SNB-75 = tested on: SNB-75
SNB-78 = tested on: SNB-78
SW-620 = tested on: SW-620
U-251 = tested on: U-251
UACC-257 = tested on: UACC-257
UACC-62 = tested on: UACC-62
UO-31 = tested on: UO-31
XF498 = tested on: XF498
786-0 = tested on: 786-0
ACHN = tested on: ACHN
LXFL 529 = tested on: LXFL 529
M14 = tested on: M14
NCI-H522 = tested on: NCI-H522
SR = tested on: SR
TK-10 = tested on: TK-10

Measured: GI50

Cc1ccc2cc3cccc(C(=O)NCCN(C)C)c3nc2c1
0.955 µM: HCT-15
active: A498 0.419 µM | A549 0.644 µM | CAKI-1 0.275 µM | CCRF-CEM 0.679 µM | COLO 205 0.483 µM | DLD-1 0.935 µM | DMS-114 0.929 µM | DMS-273 0.647 µM | HCT-116 0.459 µM | HL-60 0.565 µM | HOP-62 0.923 µM | HOP-92 0.376 µM | HT-29 0.449 µM | K562 0.69 µM | KM-20L2 0.733 µM | LOX IMVI 0.818 µM | M19-MEL 0.977 µM | MCF7 0.681 µM | MOLT-4 0.321 µM | Malme-3M 1.06 µM | NCI-H226 0.927 µM | NCI-H460 0.315 µM | NCI/ADR-RES 0.771 µM | OVCAR-4 0.998 µM | OVCAR-8 0.631 µM | RPMI-8226 0.807 µM | RXF 393 1.01 µM | SF-268 1.08 µM | SF-295 0.832 µM | SN12C 0.893 µM | SNB-19 0.925 µM | SW-620 0.514 µM | UACC-257 0.946 µM | UO-31 0.839 µM | XF498 0.977 µM
inactive: EKVX 1.14 µM | HCC 2998 1.49 µM | HOP-18 2.23 µM | IGROV-1 1.42 µM | KM12 1.54 µM | NCI-H23 1.25 µM | OVCAR-3 1.36 µM | OVCAR-5 1.47 µM | SF-539 1.38 µM | SK-MEL-28 1.63 µM | SK-MEL-2 1.87 µM | SK-MEL-5 1.32 µM | SK-OV-3 1.57 µM | SNB-75 1.33 µM | SNB-78 1.37 µM | U-251 1.66 µM | UACC-62 1.37 µM

OCC(O)COc1c(Cl)ccc(Cl)c1Cl (stereo not drawn)
inactive: 786-0 > 100 µM | A498 > 100 µM | A549 > 100 µM | ACHN > 100 µM | CAKI-1 > 100 µM | CCRF-CEM > 100 µM | COLO 205 > 100 µM | DLD-1 > 100 µM | DMS-114 > 100 µM | DMS-273 > 100 µM | EKVX > 100 µM | HCC 2998 > 100 µM | HCT-116 > 100 µM | HL-60 > 100 µM | HOP-18 > 100 µM | HOP-62 > 100 µM | HOP-92 > 100 µM | HT-29 > 100 µM | IGROV-1 > 100 µM | K562 > 100 µM | KM-20L2 > 100 µM | KM12 > 100 µM | LOX IMVI > 100 µM | LXFL 529 > 100 µM | M14 > 100 µM | M19-MEL > 100 µM | MOLT-4 > 100 µM | Malme-3M > 100 µM | NCI-H226 > 100 µM | NCI-H23 > 100 µM | NCI-H460 > 100 µM | NCI-H522 > 100 µM | OVCAR-3 > 100 µM | OVCAR-4 > 100 µM | OVCAR-5 > 100 µM | OVCAR-8 > 100 µM | RXF 393 > 100 µM | SF-268 > 100 µM | SF-295 > 100 µM | SF-539 > 100 µM | SK-MEL-28 > 100 µM | SK-MEL-2 > 100 µM | SK-MEL-5 > 100 µM | SK-OV-3 > 100 µM | SN12C > 100 µM | SNB-19 > 100 µM | SNB-75 > 100 µM | SNB-78 > 100 µM | SR > 100 µM | SW-620 > 100 µM | TK-10 > 100 µM | U-251 > 100 µM | UACC-257 > 100 µM | UACC-62 > 100 µM | UO-31 > 100 µM | XF498 > 100 µM
> 100 µM: HCT-15

O=c1oc2ccccc2c(O)c1C(C/C(CCN1CCCC1)=N\Nc1ccccc1)c1ccccc1 (stereo not drawn)
inactive: 786-0 > 100 µM | A498 > 100 µM | A549 > 100 µM | ACHN 54.8 µM | CAKI-1 > 100 µM | CCRF-CEM 27.9 µM | DLD-1 99.5 µM | EKVX > 100 µM | HCC 2998 23.6 µM | HCT-116 82.6 µM | HL-60 24.2 µM | HOP-18 91.8 µM | HOP-62 94.2 µM | HOP-92 16.3 µM | HT-29 62.8 µM | IGROV-1 > 100 µM | K562 46.2 µM | KM-20L2 > 100 µM | KM12 60.5 µM | LOX IMVI 55.6 µM | LXFL 529 84.5 µM | M14 93.1 µM | M19-MEL 61.2 µM | Malme-3M 78.5 µM | NCI-H226 71.9 µM | NCI-H23 57.3 µM | NCI-H460 70.8 µM | NCI-H522 51.2 µM | OVCAR-3 53.5 µM | OVCAR-4 97.7 µM | OVCAR-5 > 100 µM | OVCAR-8 > 100 µM | RPMI-8226 27.1 µM | RXF 393 32.7 µM | SF-268 > 100 µM | SF-295 55.7 µM | SF-539 88.9 µM | SK-MEL-2 51.3 µM | SK-MEL-5 46.3 µM | SK-OV-3 94.4 µM | SN12C 74.6 µM | SNB-19 69.5 µM | SNB-75 > 100 µM | SNB-78 > 100 µM | SR 31.2 µM | SW-620 44.6 µM | TK-10 > 100 µM | U-251 78.2 µM | UACC-257 77.8 µM | UACC-62 76 µM | UO-31 53.5 µM | XF498 > 100 µM
52.2 µM: HCT-15
